What was measured:
dopamine D2 receptors [1] = target: T1, dopamine D2 receptors (Homo sapiens (Human), UniProt P14416); test: β-arrestin2 recruitment BRET, dopamine D2 receptor functional activity; assay type: cell-based
Method: To examine the downstream f3-arrestin2 signaling pathway mediated by dopamine D2 receptors, 6 cm dish was used for transfection with 500 […] of dopamine D2 receptors fused to seaweed luciferase (D2-Rluc), 500 μg of G protein-coupled receptor kinase 2 (GRK2), 2500 μg of β-arrestin2 fused to green fluorescent protein (GFP2-ARRB2) and 14 μL of transfection reagent PEI. The next day, the overgrown cells were digested and plated a 96-well plate at the amount of cells contained in a 6 cm culture dish with overgrown cells, and 100 μL of culture medium was added to each well. On the third day, the drugs were added for test.
(§1) To examine downstream G-protein signaling pathway mediated by dopamine D2 receptors, on the first day, 6 cm dish was used for transfection with 1μg of dopamine D2 receptors, 1μg of Gαi1 containing C-terminal seaweed luciferase (GGαi1-Rluc), 1 μg of […], 1 μg of Gγ9 containing C-terminal green fluorescent protein (Gγ9-GFP) and 16 μL of PEI. At the same time, in order to examine the downstream f3-arrestin2 signaling pathway mediated by dopamine D2 receptors, on the first day, 6 cm dish was used for transfection with 500 μg of dopamine D2 receptors containing C-terminal seaweed luciferase (D2-Rluc), 500 μg of G protein-coupled receptor kinase 2 (GRK2), 2500 μg of […] containing N-terminal green fluorescent protein (GFP2-ARRB2) and 14 μL of PEI. The next day, the overgrown cells were digested and plated a 96-well plate at the amount of cells contained in a 6 cm culture dish with overgrown cells, and 100 μL of culture medium was added to each well. On the third day, the drugs were added for test. The 96-well plate was taken out from the cell culture room to remove the culture medium, 40 μL of the substrate coelenterazine 400a (final concentration of 5 μM) was added to each well, and then 20 μL of different drugs were added in turn from left to right to ensure that the final concentration of the drugs decreased gradually from bottom to top, and each treatment was repeated twice. Finally, the prepared samples were loaded on machine for test. The machine reading value reflected the intracellular β-arrestin2 on the membrane and the dissociation of G protein trimer. The former indicated the degree of activation of the β-arrestin2 signaling pathway downstream of the dopamine D2 receptors, and the latter indicated the degree of activation of the G protein signaling pathway downstream of the dopamine D2 receptors.

dopamine D2 receptors [2] = target: T1, dopamine D2 receptors; test: Radioligand competition binding, affinity for dopamine D2 receptors ([3H]-Methylspiperone)
Method: A 10 cm diameter dish was used for transfection with 10 ng of the dopamine D2 receptors and 40 μL of PEI. After 48 hours, the 10 cm dish was taken out from the cell culture room and the cultured cells had expressed the dopamine D2 receptors. A vacuum pump was used to suck off the culture medium, 3 mL of lysis buffer (50 mM Tris hydrochloric acid buffer, pH 7.4) was added to each well, and the cells were placed in a 4° C. freezer for 10 minutes. After the cells were detached, the cells were transferred to a 15 mL centrifuge tube and centrifuged at 1500 rpm for 5 minutes at 4° C., and the supernatant was discarded. The cell pellet was transferred to a tissue homogenizer, and 3 mL of lysis buffer was added and fully ground until the cells were broken. Then, cell suspension was equally divided into several EP tubes, centrifuged at 4° C. and 12000 rpm for 5 min, and the supernatant was discarded. The precipitate was the cell membrane component containing the dopamine D2 receptors and stored at −80° C.
First, a standard binding buffer (50 mM HEPES, 50 mM NaCl, 5 mM MgCl2, 0.5 mM EDTA, pH 7.4) was added to the cell membrane component containing the dopamine D2 receptors, and the cell membrane was disrupted and resuspended with an electric tissue homogenizer. 30 μL of membrane protein suspension was added to each well of a 96-well plate. Then, 30 μL of different drugs were added to the 96-well plate from left to right to ensure that the final drug concentrations were 10^−5 M, 10^−6 M, 10^−7 M, 10^−8 M, 10^−9 M and 0 M, with two replicates per treatment. Next, 30 μL [^3H]-N-Methylspiperone was added to each well of the 96-well plate, and the plate was incubated for 2 hours at room temperature in the dark. The unbound isotopes were removed by Whatman GF/C filter membrane and vacuum pump, and the isotopes bound to the receptors were detected by MicroBeta isotope liquid scintillation counter.
The affinity of the compounds of the present invention for the dopamine D2 receptors was determined by the method of radioligand competition experiment. In the first step, a cell membrane component containing specific dopamine D2 receptors was prepared. A10 cm dish was used for transfection with 10 ng of the dopamine D2 receptors and 40 μL of PEI. After 48 hours, the 10 cm dish was taken out from the cell culture room and the cultured cells had expressed the dopamine D2 receptors. A vacuum pump was used to suck off the culture medium, 3 mL of lysis buffer was added to each well, and the cells were placed in a 4° C. freezer for 10 minutes. After the cells were detached, the cells were transferred to a 15 mL centrifuge tube and centrifuged at 1500 rpm for 5 minutes at 4° C., and the supernatant was discarded. The cell pellet was transferred to a tissue homogenizer, and 3 mL of lysis buffer was added and fully ground until the cells were broken. Then, cell suspension was equally divided into several EP tubes, centrifuged at 4° C. and 12000 rpm for 5 min, and the supernatant was discarded. The precipitate was the cell membrane component containing the dopamine D2 receptors. […] First, a standard binding buffer was added to the cell membrane component containing the dopamine D2 receptors, and the cell membrane was disrupted and resuspended with an electric tissue homogenizer. 30 μL of membrane protein suspension was added to each well of a 96-well plate. Then, 30 μL of different drugs were added to the 96-well plate from left to right to ensure that the final drug concentrations were 10^−5 M, 10^−6 M, 10^−7 M, 10^−8 M, 10^−9 M and 0 M, with two replicates per treatment. Next, 30 μL [^3H]-Methylspiperone was added to each well of the 96-well plate. The plate was incubated for 2 hours at room temperature in the dark. Detection. The machine reading value reflected the amount of [^3H]-Methylspiperone bound on the membrane, and after further data processing, the affinity Ki value of different compounds for dopamine D2 receptors was obtained.

dopamine D2 receptors [3] = target: T1, dopamine D2 receptors; test: G protein Gαi1-γ9 dissociation BRET, dopamine D2 receptor functional activity; assay type: cell-based
Method: To examine downstream G protein signaling mediated by dopamine D2 receptors, 6 cm dish was used for transfection with 1μg of dopamine D2 receptors, 1μg of Gαi1 fused to seaweed luciferase (Gαi1-Rluc), 1 μg of Gβ3, 1 μg of Gγ9 fused to green fluorescent protein (Gγ9-GFP) and 16 μL of transfection reagent PEI. […] On the third day, the drugs were added for test.
as §1

5-HT2A receptor [4] = target: T2, 5-HT2A receptor (Homo sapiens (Human), UniProt P28223); test: Radioligand competition binding, affinity for 5-HT2A receptor ([3H]-ketanserin)
Method: The affinity of the compounds of the present invention for the 5-HT2A receptors was determined by the method of radioligand competition experiment. In the first step, a cell membrane component containing specific 5-HT2A receptor was prepared. A 10 cm dish was used for transfection with 10 ng of the 5-HT2A receptor and 40 μL of PEI. […] A vacuum pump was used to suck off the culture medium, 3 mL of lysis buffer was added to each well, and the cells were placed in a 4° C. freezer for 10 minutes. After the cells were detached, the cells were transferred to a 15 mL centrifuge tube and centrifuged at 1500 rpm for 5 minutes at 4° C., and the supernatant was discarded. The cell pellet was transferred to a tissue homogenizer, and 3 mL of lysis buffer was added and fully ground until the cells were broken. Then, cell suspension was equally divided into several EP tubes, centrifuged at 4° C. and 12000 rpm for 5 min, and the supernatant was discarded. The precipitate was the cell membrane component containing the 5-HT2A receptor. […] First, a standard binding buffer was added to the cell membrane component containing the 5-HT2A receptor, and the cell membrane was disrupted and resuspended with an electric tissue homogenizer. 30 μL of membrane protein suspension was added to each well of a 96-well plate. Then, 30 μL of different drugs were added to the 96-well plate from left to right to ensure that the final drug concentrations were 10^−5 M, 10^−6 M, 10^−7 M, 10^−8 M, 10^−9 M and 0 M, with two replicates per treatment. Next, 30 μL [^3H]-ketanserin was added to each well of the 96-well plate. The plate was incubated for 2 hours at room temperature in the dark. Detection. The machine reading value reflected the amount of [^3H]-ketanserin bound on the membrane, and after further data processing, the affinity Ki value of different compounds for 5-HT2A receptor was obtained.

5-HT2A receptor [5] = target: T2, 5-HT2A receptor; settings: Blair, Drugs, 2020; cited from earlier work
C57B6 male mice = test: Freezing behavior test; assay type: in vivo; settings: 10 mg/kg
Method: Experimental method: The experimental animals were C57B6 male mice, n=8 in each group. Mice were first injected with different compounds, and after a certain period of time (30 min or 60 min), the mice were in an upright and unnatural state by placing their forelimbs on a high glass hanging rod (about 5 cm from the ground). Then the time for the mice to maintain this state was measured, and the length of time was used to determine the freezing effect of the drug on the mice.

T2 sequence (P28223 whole entry): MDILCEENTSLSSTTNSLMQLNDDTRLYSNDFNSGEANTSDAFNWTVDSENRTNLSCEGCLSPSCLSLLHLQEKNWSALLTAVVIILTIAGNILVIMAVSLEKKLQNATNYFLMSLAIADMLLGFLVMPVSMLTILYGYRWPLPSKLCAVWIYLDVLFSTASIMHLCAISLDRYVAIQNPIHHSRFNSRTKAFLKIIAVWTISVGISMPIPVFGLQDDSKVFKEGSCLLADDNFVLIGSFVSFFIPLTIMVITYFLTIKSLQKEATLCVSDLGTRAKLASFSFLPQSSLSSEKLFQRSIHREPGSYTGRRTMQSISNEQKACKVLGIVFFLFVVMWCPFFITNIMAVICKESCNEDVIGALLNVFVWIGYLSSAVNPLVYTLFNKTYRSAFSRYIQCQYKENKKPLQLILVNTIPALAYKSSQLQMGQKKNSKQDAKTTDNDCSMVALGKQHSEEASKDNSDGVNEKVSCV
T1 sequence (P14416 whole entry, the tested form may be a part): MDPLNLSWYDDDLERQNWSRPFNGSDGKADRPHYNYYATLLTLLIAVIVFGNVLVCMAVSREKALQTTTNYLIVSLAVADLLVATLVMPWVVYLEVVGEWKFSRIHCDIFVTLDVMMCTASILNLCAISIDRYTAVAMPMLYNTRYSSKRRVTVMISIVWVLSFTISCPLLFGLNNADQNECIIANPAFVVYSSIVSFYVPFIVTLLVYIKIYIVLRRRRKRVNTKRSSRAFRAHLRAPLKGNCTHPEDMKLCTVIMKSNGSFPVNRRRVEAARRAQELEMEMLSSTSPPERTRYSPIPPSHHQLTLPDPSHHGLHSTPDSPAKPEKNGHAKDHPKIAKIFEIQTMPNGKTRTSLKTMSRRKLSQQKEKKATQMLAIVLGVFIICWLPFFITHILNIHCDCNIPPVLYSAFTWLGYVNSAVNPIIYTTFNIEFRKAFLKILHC

## CN(C)C(=O)N[C@H]1CC[C@H](CCN2CCN3c4cccc5[nH]cc(c45)CC3C2)CC1 (stereo partly drawn) [Compound I-10, 3-(4-(2-(4,6,6a,7,9,10-hexahydro-8H-pyrazino[1,2-a]pyrrolo[4,3,2-de]quinolin-8-yl)ethyl)trans-cyclohexyl)-1,1-dimethylurea]
Dopamine D2 receptors [1]; HEK-293T, I-1 to 19 n=3, I-20 to 27 single determination, read-out: β-arrestin2 BRET EC50
  EC50: 0.00661 µM
Dopamine D2 receptors [1]; read-out: β-arrestin2 BRET Emax % ± SEM
  Emax: 84%
Dopamine D2 receptors [2]
  Affinity pKi ± SEM: (7.30 ± 0.08)
  Ki: 0.0506 µM
Dopamine D2 receptors [3]; HEK-293T, I-1 to 19 n=3, I-20 to 27 single determination, read-out: Gai1 BRET EC50
  EC50: 0.00389 µM
Dopamine D2 receptors [3]; read-out: Gai1 BRET Emax % ± SEM
  Emax: 80%
5-HT2A receptor [4]
  affinity for 5-HT2A receptor (in words): very weak affinity
5-HT2A receptor [4]; [3H]-ketanserin, HEK-293T membranes
  Ki: 2.37 µM

## CN1CCN2c3c(cccc31)[C@@H]1CN(CCCC(=O)c3ccc(F)cc3)CC[C@@H]12 [Lumateperone]
5-HT2A receptor [5]
  affinity for 5-HT2A receptors relative to that for D2 receptors: about 60 times

## O=C(CCCN1CCC(O)(c2ccc(Cl)cc2)CC1)c1ccc(F)cc1 [Haloperidol, reference compound]
C57B6 male mice; 30 minutes after administration
  Freezing time: 61.05 ± 3.239 s
C57B6 male mice; 60 minutes after administration
  Freezing time: 53.19 ± 2.443 s

From patent US20240124456A1, “AZA-ERGOLINE DERIVATIVE AND PREPARATION METHOD THEREFOR AND APPLICATION THEREOF” (SHANGHAITECH UNIVERSITY, priority 2021, published 2024)
